The term IC50 denotes the midpoint of a concentration-inhibition curve. A high value points to a need for much substance.

The record followed here is ChEMBL document CHEMBL1131184, “Novel CDC25A phosphatase inhibitors from pyrolysis of 3-alpha-azido-B-homo-6-oxa-4-cholesten-7-one on silica gel” (J Med Chem, 1998).

This test has as its target T1, M-phase inducer phosphatase 1 (Homo sapiens, UniProt P30304).
T1 sequence (P30304 whole entry): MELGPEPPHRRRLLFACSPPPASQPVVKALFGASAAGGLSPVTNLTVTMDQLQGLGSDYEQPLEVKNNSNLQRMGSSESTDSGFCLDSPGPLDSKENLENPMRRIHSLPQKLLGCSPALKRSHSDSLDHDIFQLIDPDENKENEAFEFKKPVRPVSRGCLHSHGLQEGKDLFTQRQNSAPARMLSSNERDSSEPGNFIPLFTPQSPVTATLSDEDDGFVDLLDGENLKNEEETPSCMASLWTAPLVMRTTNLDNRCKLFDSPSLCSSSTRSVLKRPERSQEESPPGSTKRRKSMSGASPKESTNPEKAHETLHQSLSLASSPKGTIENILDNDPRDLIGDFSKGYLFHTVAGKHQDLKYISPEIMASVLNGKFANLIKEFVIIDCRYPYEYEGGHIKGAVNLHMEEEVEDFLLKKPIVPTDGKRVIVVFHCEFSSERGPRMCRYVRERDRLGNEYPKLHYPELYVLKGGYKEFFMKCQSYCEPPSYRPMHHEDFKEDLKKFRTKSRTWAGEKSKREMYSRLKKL
Description: Compound was evaluated for the inhibition of Cdc25A phosphatase by using fluorescein diphosphate as substrate.
In the case of `C/C(=C\C/C=C\C#N)[C@H]1CC[C@]2(C)[C@@H](C(C)CCCC(C)C)CC[C@H]2[C@@H]1CC(=O)O` (stereo not given in full), the IC50 amounted to 24.2 µM. The value for `C=C(CCCCC#N)[C@H]1CC[C@]2(C)[C@@H]([C@H](C)CCCC(C)C)CC[C@H]2[C@@H]1CC(=O)O` was 2.2 µM; that for `CC(C)CCCC(C)[C@H]1CC[C@H]2[C@@H]3CC(=O)O[C@](C)(CC/C=C\C#N)[C@H]3CC[C@]12C` (stereo not given in full) was above 50 µM. `C=C(CC/C=C\C#N)[C@H]1CC[C@]2(C)[C@@H](C(C)CCCC(C)C)CC[C@H]2[C@@H]1CC(=O)O` (stereo not given in full) showed an IC50 of 9.7 µM. In other words, the single-digit micromolar range. As for `CC(C)CCCC(C)[C@H]1CC[C@H]2[C@@H]3CC(=O)O[C@@](C)(CC/C=C\C#N)[C@H]3CC[C@]12C` (stereo not given in full), half-maximal inhibition (IC50) required 13.3 µM. This IC50 and that of the compound before are within 1.5-fold of each other.
